Patent US20070081951A1, “Prevention of dental plaque and dental calculus in animals” (priority 2005, published 2007)

Columns and labels:
[1] = tested on: Streptococcus mutans (TH16); test: Zones of inhibition of growth on TSA agar plates, Streptococcus mutans (TH16); type: cell-based; settings: for Zones of Inhibition of Growth, TH16: 20 ul specimen on TSA agar lawn, 37° C., 5% CO2, read at 24 and 48 h, CPC 0.05%, CHX 0.1%, acids 1% (wt. %)
Description: (§1) This study was conducted to determine whether anti-calculus agents inhibit the antimicrobial activity of cetyl pyridium chloride […] and chlorhexidine (CHX).
(§2) Experimental Design: TSA agar plates were individually swabbed with fresh 24 h broth cultures of Streptococcus mutans (TH16), Streptococcus parasanguis (FW213) and Actinomyces viscosus (AV) to provide a confluent lawn of bacterial growth. Five minutes after swabbing the plates (to allow the inoculum to absorb into the agar), 20 ul of each test specimen (see below) was placed onto designated places on the plates and allowed to absorb into the agar. The plates were incubated agar-side up at 37° C. in 5% CO2 for 48 h. Plates were examined at 24 and 48 h for zones of inhibition of growth for each bacterial species. The diameter of each zone was measured in mm. The zones of inhibition of each mixture (anti-calculus and antimicrobial agents) were compared to the zones of each agent separately. If the zones of the mixtures were the same size (or larger) than the inhibition zones from the antimicrobial agent alone then there was no inhibition of antimicrobial activity by the anti-calculus agent.
(§3) Test Specimens: There were 12 different samples/test specimens used in this experiment. Test groups included (concentrations are wt. %): cetyl pyridium chloride ([…]; commercially available from ICN Biomedicals, Inc., Aurora, Ohio) at a concentration of 0.05%; CPC at 0.05%+1.0% malic acid; CPC at 0.05%+1% fumaric acid; CPC at 0.05%+1% citric acid; chlorhexidine (CHX; commercially available ICN Biomedicals, Inc., Aurora, Ohio) at 0.1% alone; CHX at 0.1%+1% malic acid; CHX at 0.1%+1% fumaric acid; CHX at 0.1%+1% citric acid; 1% malic acid; 1% fumaric acid; 1% citric acid.
(§4) Results: See Table 1 (below). This study was designed to determine whether or not the polycarboxylic acids (anti-calculus agents) altered the activity of the anti-microbial agents. Decreases in the width of the zone of inhibition when the polycarboxylic acid is combined with the antimicrobial agent, as compared to the width of the zone of inhibition for the antimicrobial agent alone, is an indication that the polycarboxylic acid reduced the activity of the anti-microbial agent. Differences in the width of the zone of inhibition of ±3 mm are not considered to be significant.

[2] = tested on: Actinomyces viscosus (AV); test: Zones of inhibition of growth on TSA agar plates, Actinomyces viscosus (AV); type: cell-based; settings: for Zones of Inhibition of Growth, AV: 20 ul specimen on TSA agar lawn, 37° C., 5% CO2, read at 24 and 48 h, CPC 0.05%, CHX 0.1%, acids 1% (wt. %)
Description: as §1, §2, §3, §4

[3] = tested on: Streptococcus parasanguis (FW213); test: Zones of inhibition of growth on TSA agar plates, Streptococcus parasanguis (FW213); type: cell-based; settings: for Zones of Inhibition of Growth, FW213: 20 ul specimen on TSA agar lawn, 37° C., 5% CO2, read at 24 and 48 h, CPC 0.05%, CHX 0.1%, acids 1% (wt. %)
Description: as §1, §2, §3, §4

[4] = tested on: dental plaque in cats; test: Example 3: antimicrobial rinses in cats, 4-week dental plaque formation; type: in vivo; settings: 4-week test periods, clinical plaque grading
Description: The presence of dental plaque was assessed clinically by disclosing the plaque with an aqueous solution containing 1.5% D&C Red #28, removing the excess disclosant by spraying with tap water, and then determining the amount of plaque present on the occlusal and gingival halves of the buccal surface of each tooth using the following numerical scale: 0=no observable plaque; 1=scattered plaque covering <24% of the tooth surface; 2=plaque covering between 25 and 49% of the tooth surface; 3=plaque covering between 50 and 74% of the tooth surface; and 4=plaque covering 75% or more of the tooth surface. The plaque intensity or thickness was assessed for each area using the following subjective numerical scale: 1=light or thin layer of plaque; 2=moderate thickness of about 1 mm; and 3=heavy or thick layer of plaque in excess of 1 mm in thickness. The results of the assessments were summarized for each animal by multiplying the plaque coverage score by the intensity factor for each occlusal and gingival segment of each tooth, summing the scores for the occlusal and gingival segments to obtain an individual tooth score, and summing the individual tooth scores and dividing by the number of teeth graded.
The treatments were applied as rinses with 4-week test periods using the same procedures as described for Example 2. The amount of plaque present at the conclusion of the test period was graded clinically using the numerical scale described previously.

[5] = zone of mixture vs antimicrobial agent alone, differences of ±3 mm not significant

Row | SMILES | Zones of Inhibition of Growth, TH16 [1] | Zones of Inhibition of Growth, AV [2] [mm] | Zones of Inhibition of Growth, FW213 [3] [mm] | Reduction in the formation of dental plaque [4] | Change of antimicrobial activity on combining with the polycarboxylic acids, S. mutans [1, 5] | Change of antimicrobial activity on combining with the polycarboxylic acids, A. viscosus [2, 5] | Change of antimicrobial activity on combining with the polycarboxylic acids, S. parasanguis [3, 5]
1 | O=C(O)CC(O)(CC(=O)O)C(=O)O [C (citric acid), citric acid] | Weak* (Weak = very slight activity; <1 mm) | 0 | 0 |  |  |  | 
2 | CCCCCCCC(=O)O [caprylic acid] |  |  |  | 10.2% |  |  | 
3 | [H]/N=C(\N/C(=N/[H])NCCCCCCNC(=N)NC(=N)Nc1ccc(Cl)cc1)Nc1ccc(Cl)cc1 [CHX alone, chlorhexidine gluconate] | 6 mm | 20 | 13 |  | not altered | decreased by the presence of fumaric acid | not altered
4 | O=C(O)CC(O)C(=O)O (stereo not drawn) [M (malic acid), malic acid] | Weak* (Weak = very slight activity; <1 mm) | 0 | 0 |  |  |  | 
5 | O=C(O)/C=C/C(=O)O [F (fumaric acid), fumaric acid] | Weak* (Weak = very slight activity; <1 mm) | 0 | 0 |  |  |  | 
6 | Oc1cc(Cl)ccc1Oc1ccc(Cl)cc1Cl [Triclosan] |  |  |  | 14.8% |  |  | 
7 | [F][Sn][F] [stannous fluoride] |  |  |  | no reduction |  |  | 
